Data from ChEMBL document CHEMBL1201862, “PubChem BioAssay data set” (2004).
The source made the active and inactive calls.

Columns and labels:
[1] = C. albicans growth with fluconazole, confirmation, fluorescence, retest (AID 2467); assay type: functional, cell-based
[2] = NIH-3T3 fibroblast cytotoxicity, dose response, cytotoxicity control, cell-based, fluorescence, Alamar Blue, secondary assay (AID 2327); assay type: functional;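 further: NIH-3T3 mouse fibroblasts cultured with fluconazole at 8 µg/mL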
Protein skinhead-1 = target: T1, Protein skinhead-1 (Caenorhabditis elegans, UniProt P34707); assay type: functional
T1 sequence (P34707 whole entry): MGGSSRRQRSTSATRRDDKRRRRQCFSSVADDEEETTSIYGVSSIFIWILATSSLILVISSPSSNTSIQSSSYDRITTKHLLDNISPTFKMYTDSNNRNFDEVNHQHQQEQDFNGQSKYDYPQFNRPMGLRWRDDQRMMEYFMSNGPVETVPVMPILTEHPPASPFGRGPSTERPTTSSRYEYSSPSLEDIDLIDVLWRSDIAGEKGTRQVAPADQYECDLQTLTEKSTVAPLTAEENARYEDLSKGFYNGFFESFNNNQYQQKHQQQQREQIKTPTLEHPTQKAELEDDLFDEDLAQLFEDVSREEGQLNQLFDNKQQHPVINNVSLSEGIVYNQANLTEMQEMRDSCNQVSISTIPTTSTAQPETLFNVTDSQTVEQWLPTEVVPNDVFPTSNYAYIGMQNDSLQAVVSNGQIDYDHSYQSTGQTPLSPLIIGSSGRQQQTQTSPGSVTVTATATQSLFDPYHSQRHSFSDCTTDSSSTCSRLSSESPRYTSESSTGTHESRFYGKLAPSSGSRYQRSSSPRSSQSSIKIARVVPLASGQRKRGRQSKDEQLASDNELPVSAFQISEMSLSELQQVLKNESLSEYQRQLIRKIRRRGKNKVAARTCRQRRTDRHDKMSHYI

[3] = target: T2, Polyadenylate-binding protein 1 (Homo sapiens, UniProt P11940); experiment: PABP1 MLLE–PAM2 binding inhibitor potency, dose response, biochemical, fluorescence polarization, FITC-PAM2 peptide (AID 602259); assay type: functional; details: read-out: IC50_Mean
[4] = target: T2, Polyadenylate-binding protein 1; experiment: PABP1 MLLE–PAM2 interaction inhibitors, dose response, miRNA deadenylation inhibitor project, biochemical, fluorescence polarization, Cy5-PAM2 peptide, secondary (AID 602260); assay type: functional; details: read-out: IC50_Mean
[5] = HEp-2 cell cytotoxicity, dose response, cytotoxicity control for RSV inhibitor project, HTS (AID 2410); assay type: functional; details: human respiratory syncytial virus
[6] = cytotoxicity toward DRD oncogenic fibroblasts, dose response, cell-based, non-viral oncogenic, luminescence (AID 1934); assay type: functional; details: Homo sapiens
BJ [7] = experiment: cells; assay type: functional, cell-based; details: Homo sapiens
BJ [8] = experiment: cytotoxicity toward BJ-TERT fibroblasts, dose response, cell-based, RAS-independent, luminescence (AID 1933); assay type: functional; details: Homo sapiens
BJ [9] = experiment: cytotoxicity toward BJ-TERT-LT-ST fibroblasts, dose response, cell-based, RAS-independent, luminescence (AID 1935); assay type: functional; details: Homo sapiens;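 further: BJ fibroblasts immortalized with TERT plus LT and ST oncogenes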
cells [10] = assay type: functional
[11] = inhibitors of clade B AD8 Env fusion, dose response, cell-based, cherry-pick (AID 652062); assay type: functional;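 further: luciferase signal from cell-cell fusion driven by HIV-1 clade B AD8 Env; potency is for inhibitors of fusion seen as a drop in luminescence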
[12] = ZM109 Env clade C HIV-1 fusion inhibitors, dose response, HeLa effector, CEM target cells, luciferase, cherry-pick (AID 652058); assay type: functional, cell-based
[13] = inhibitors of HIV Env-driven cell fusion, dose response, cherry-pick (AID 652057); assay type: functional, cell-based
[14] = HEK293 cell cytotoxicity, dose response, cytotoxicity control, plate reader, cherry-picked samples (AID 743446); assay type: functional, cell-based
[15] = A549 cell cytotoxicity, dose response, cytotoxicity control, plate reader, cherry-pick, antagonist series (AID 743412); assay type: functional, cell-based
[16] = LGR2 antagonists, dose response, cell-based, HEK293, CRE-luciferase reporter, cherry pick, set 2 (AID 743343); assay type: functional;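 further: transfected cells were stimulated with diluted bursicon conditioned medium after compound addition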
[17] = HepG2 cell cytotoxicity, dose response, cytotoxicity control, plate reader, cherry-pick, antagonist series (AID 743416); assay type: functional, cell-based
[18] = MC4R antagonists, dose response, counter-screen for LGR2 antagonist project, cell-based, plate reader, cherry pick (AID 743444); assay type: functional;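 further: transfected HEK 293 cells stimulated with alpha-MSH peptide; potency of inhibitors of the alpha-MSH evoked signal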
[19] = target: Induced myeloid leukemia cell differentiation protein Mcl-1 (Homo sapiens, UniProt Q07820); assay type: functional
[20] = Luminescence Cell-Based Dose Confirmation HTS to Identify Inhibitors of Platelet Dense Granule Release. [Related pubchem assays: 1663 (Primary HTS), 1678 (Summary of Project)]; assay type: functional
[21] = target: Luciferin 4-monooxygenase (Photinus pyralis, UniProt P08659); experiment: firefly luciferase enzyme inhibitors, dose response, biochemical, luminescence (AID 1891)
cells [22] = assay type: functional, cell-based
cells [23] = assay type: functional, cell-based; remark: listed apart in the source
[24] = P. falciparum Dd2 growth inhibitors, dose response, SYBR Green, cherry-picked samples (AID 1159567); assay type: functional, cell-based
Large T antigen = Large T antigen (Simian virus 40, UniProt P03070); assay type: functional, Betapolyomavirus macacae;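 further: Confirmatory-stage PubChem screen for compounds that inhibit SV40 T antigen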
H4 = experiment: Luminescence Cell-Based Dose Response HTS to Identify Activators of 5'UTR Stem-Loop Driven Prion Protein mRNA Translation in H4 Neuroglioblastoma Cells. [Related pubchem assays: 1829 (Project Summary), 1814 (Primary HTS)]; assay type: functional; details: Homo sapiens
[25] = Luminescence Cell-Based Dose Response HTS to Identify Activators of Luciferase Translation or Activity in H4 […] Cells. [Related pubchem assays: 1829 (Project Summary), 1814 (Primary HTS)]; assay type: functional
[26] = target: Glyceraldehyde-3-phosphate dehydrogenase (Homo sapiens, UniProt P04406)
Sequence of Glyceraldehyde-3-phosphate dehydrogenase (P04406 whole entry): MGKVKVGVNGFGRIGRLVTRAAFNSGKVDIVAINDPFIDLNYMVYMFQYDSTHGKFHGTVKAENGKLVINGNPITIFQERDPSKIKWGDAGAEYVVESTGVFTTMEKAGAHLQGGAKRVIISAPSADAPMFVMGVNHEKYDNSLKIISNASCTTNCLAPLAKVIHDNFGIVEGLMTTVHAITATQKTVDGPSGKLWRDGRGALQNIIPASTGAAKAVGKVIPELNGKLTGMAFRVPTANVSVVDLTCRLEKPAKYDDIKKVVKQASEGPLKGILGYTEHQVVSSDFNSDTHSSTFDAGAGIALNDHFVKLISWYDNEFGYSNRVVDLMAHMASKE

Sequence of Induced myeloid leukemia cell differentiation protein Mcl-1 (Q07820 whole entry): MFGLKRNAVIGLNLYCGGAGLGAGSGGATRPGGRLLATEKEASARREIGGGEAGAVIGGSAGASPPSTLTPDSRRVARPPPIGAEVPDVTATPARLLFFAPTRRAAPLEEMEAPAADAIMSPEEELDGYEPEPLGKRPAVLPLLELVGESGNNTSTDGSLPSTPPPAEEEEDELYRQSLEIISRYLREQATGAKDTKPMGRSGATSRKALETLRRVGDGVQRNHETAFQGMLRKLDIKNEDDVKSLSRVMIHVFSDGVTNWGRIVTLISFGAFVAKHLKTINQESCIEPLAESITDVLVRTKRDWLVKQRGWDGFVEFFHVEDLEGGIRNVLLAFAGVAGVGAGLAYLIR
T2 sequence (P11940 whole entry): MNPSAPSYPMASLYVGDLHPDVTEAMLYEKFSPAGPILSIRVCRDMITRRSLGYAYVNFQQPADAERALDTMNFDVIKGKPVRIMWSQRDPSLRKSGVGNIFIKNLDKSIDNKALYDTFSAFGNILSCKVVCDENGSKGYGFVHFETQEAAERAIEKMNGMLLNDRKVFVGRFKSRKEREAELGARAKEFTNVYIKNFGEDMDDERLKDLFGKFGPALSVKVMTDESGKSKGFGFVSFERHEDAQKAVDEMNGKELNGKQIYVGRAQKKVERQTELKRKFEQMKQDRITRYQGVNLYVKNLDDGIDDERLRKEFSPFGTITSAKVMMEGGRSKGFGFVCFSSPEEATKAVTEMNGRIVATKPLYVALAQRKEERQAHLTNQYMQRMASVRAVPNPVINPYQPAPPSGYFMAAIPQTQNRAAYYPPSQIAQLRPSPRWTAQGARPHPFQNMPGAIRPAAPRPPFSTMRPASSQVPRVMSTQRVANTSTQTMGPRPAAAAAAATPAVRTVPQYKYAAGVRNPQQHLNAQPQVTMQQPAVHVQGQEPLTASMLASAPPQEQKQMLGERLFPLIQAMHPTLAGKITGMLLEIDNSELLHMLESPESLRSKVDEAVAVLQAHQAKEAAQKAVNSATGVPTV
Sequence of Luciferin 4-monooxygenase (P08659 whole entry): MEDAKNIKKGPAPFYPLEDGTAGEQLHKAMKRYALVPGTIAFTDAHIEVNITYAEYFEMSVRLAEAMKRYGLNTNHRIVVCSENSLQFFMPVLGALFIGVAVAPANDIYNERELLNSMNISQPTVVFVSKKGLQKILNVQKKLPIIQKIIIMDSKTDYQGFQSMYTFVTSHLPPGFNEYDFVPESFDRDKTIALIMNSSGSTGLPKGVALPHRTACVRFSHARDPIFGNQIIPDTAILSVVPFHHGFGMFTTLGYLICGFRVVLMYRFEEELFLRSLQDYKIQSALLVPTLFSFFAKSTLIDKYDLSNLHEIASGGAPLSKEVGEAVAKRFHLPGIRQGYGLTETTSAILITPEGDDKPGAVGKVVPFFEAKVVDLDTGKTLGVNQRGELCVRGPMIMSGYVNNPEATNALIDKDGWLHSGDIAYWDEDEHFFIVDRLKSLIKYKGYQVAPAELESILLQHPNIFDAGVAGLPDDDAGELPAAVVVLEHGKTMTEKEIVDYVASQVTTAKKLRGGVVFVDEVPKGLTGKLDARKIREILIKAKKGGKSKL
Sequence of Large T antigen (P03070 whole entry): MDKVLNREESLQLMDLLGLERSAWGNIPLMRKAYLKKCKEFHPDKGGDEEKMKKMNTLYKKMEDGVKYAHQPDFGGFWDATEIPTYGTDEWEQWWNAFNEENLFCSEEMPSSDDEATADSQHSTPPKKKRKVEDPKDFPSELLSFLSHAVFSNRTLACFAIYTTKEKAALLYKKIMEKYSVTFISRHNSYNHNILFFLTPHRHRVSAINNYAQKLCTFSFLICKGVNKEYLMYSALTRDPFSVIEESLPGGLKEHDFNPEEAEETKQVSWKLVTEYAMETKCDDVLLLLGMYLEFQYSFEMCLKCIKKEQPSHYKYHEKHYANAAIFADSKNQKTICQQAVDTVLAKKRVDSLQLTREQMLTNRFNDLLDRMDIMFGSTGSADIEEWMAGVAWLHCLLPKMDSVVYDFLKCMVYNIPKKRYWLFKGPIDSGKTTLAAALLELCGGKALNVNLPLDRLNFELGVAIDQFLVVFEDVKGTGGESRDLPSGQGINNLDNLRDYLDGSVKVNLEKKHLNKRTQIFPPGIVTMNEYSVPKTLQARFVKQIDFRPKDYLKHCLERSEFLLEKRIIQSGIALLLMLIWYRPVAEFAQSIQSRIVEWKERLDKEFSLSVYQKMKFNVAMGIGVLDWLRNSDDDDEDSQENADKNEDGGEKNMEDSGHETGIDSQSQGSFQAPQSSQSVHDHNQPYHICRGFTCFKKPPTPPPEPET

For CN(C)c1ccc(C(=O)N/N=C/c2cc(Br)cc(Br)c2O)cc1, the EC50 [1] was > 38 µM (not active) and the EC50 [2] was 14 µM (active).
For Clc1ccc(-n2nnc(-c3nccs3)n2)cc1Cl, the IC50 (Protein skinhead-1) was > 100 µM (inactive).
For CCOC(=O)c1sc(=S)n(-c2cccc(OC)c2)c1N, the IC50 [3] was > 66 µM (inactive) and the IC50 [4] was > 66 µM (inactive).
With COC(=O)CCn1c(C)cc(C(=O)COc2ccccc2C(N)=O)c1C the CC50 [5] was 9.72 µM (active), the EC50 [6] was > 150 µM (not active) and the EC50 (BJ [7]) was > 150 µM (not active). For the same compound, the EC50 (BJ [8]) was 58.1 µM (active), the EC50 (BJ [9]) was > 150 µM (inconclusive) and the IC50 (cells [10]) was 19.8 µM (active).
For COc1ccccc1CNC(=O)C1CCN(C(=O)N(C)C)CC1, the IC50 (Protein skinhead-1) was > 100 µM (inactive).
In the case of COc1ccc(CNC(=O)N(C)C[C@H]2OCc3ccccc3-c3c(n(C)c4ccccc34)C(=O)N([C@@H](C)CO)C[C@@H]2C)cc1, the AC50 [11] is reported as < 0.26 µM (active), the AC50 [12] is reported as < 0.26 µM (active) and the AC50 [13] is reported as < 0.26 µM (active).
For O=C(Nc1cc2ccccc2oc1=O)c1ccccc1, the AC50 [14] was 37.2 µM (active), the AC50 [15] was 31.5 µM (active) and the AC50 [16] was 1.69 µM (active). For the same compound, the AC50 [17] was 41 µM (active) and the AC50 [18] was 3.08 µM (active).
In the case of Cn1c(N)c(C(=O)COC(=O)c2cc(-c3ccco3)nc3ccccc23)c(=O)n(Cc2ccccc2)c1=O, the IC50 [19] is reported as 2.95 µM (active).
For O=C(/C=C/Nc1ccc(F)cc1F)c1cccs1, the IC50 (Protein skinhead-1) was 73.4 µM (inactive), the EC50 [20] was 4.23 µM (active) and the EC50 [21] was 1.09 µM (active).
For Cn1ncc(Br)c1NC(=O)CSc1ccc(Cl)cc1, the EC50 (cells [22]) was > 350 µM (not active) and the EC50 (cells [23]) was 181 µM (active).
In the case of CC(=O)Nc1ccc(NC(=O)CCC(=O)OCC(=O)c2ccc(F)cc2)cc1, the EC50 (cells [22]) is reported as > 350 µM (not active) and the EC50 (cells [23]) is reported as > 350 µM (not active).
In the case of CN(C)CCCN(C(=O)CCS(=O)(=O)c1ccccc1)c1nc2cc3c(cc2s1)OCO3, the EC50 (cells [22]) is reported as > 350 µM (not active) and the EC50 (cells [23]) is reported as > 350 µM (not active).
With O=C(Nc1ccc(Cl)cc1)Nc1ccccc1C(=O)O the AC50 [15] was > 52 µM (inactive), the AC50 [16] was 9.59 µM (active) and the EC50 [20] was 5.21 µM (active). The EC50 [21] was < 0.088 µM (active) and the AC50 [18] was 6.99 µM (active).
With CN(C)CC(=O)N1[C@H](CO)[C@H](c2ccc(-c3cccc(C(=O)N(C)C)c3)cc2)[C@@H]1C#N the AC50 [24] was 7.56 µM (active).
In the case of Clc1cccc(/C=N/Nc2nc(Cl)nc3ccccc23)c1, the IC50 [19] is reported as 19 µM (not active).
With COc1cccc(-c2ncn(CCc3ccccc3OC)c2CC(C)C)c1 the AC50 [14] was > 52 µM (inactive), the AC50 [15] was 23.6 µM (active) and the AC50 [16] was 23.6 µM (active). For the same compound, the AC50 [17] was 22.3 µM (active) and the AC50 [18] was 22.2 µM (active).
In the case of O=C(O)CCCCCN1C(=O)C(O)=C(C(=O)/C=C/c2ccccc2)C1c1ccccc1[N+](=O)[O-] (stereo not drawn), the IC50 [3] is reported as > 66 µM (inactive) and the IC50 [4] is reported as > 66 µM (inactive).
In the case of COc1ccc(S(=O)(=O)Nc2ccc3c(c2)CC(=O)N([C@@H](C)CO)C[C@H](C)[C@H](CN(C)S(=O)(=O)c2cccs2)O3)cc1, the AC50 [11] is reported as 25.1 µM (active), the AC50 [12] is reported as 1.15 µM (active) and the AC50 [13] is reported as 7.42 µM (active).
In the case of C=CCN1C(=O)c2ccccc2Sc2ccc(C(=O)N3CCN(C)CC3)cc21, the EC50 (cells [22]) is reported as > 350 µM (not active) and the EC50 (cells [23]) is reported as > 350 µM (not active).
For O=C(NCC1CCCO1)c1cc2c([nH]c3ccccc32)c(-c2ccc(F)cc2)n1 (stereo not drawn), the EC50 [6] was 23.6 µM (active), the EC50 (BJ [7]) was 23.9 µM (active) and the EC50 (BJ [8]) was 30.7 µM (active). For the same compound, the EC50 (BJ [9]) was > 150 µM (not active).
For CCOC(=O)Cc1csc(NC(=O)c2ccc3ncsc3c2)n1, the EC50 [1] was > 38 µM (not active) and the EC50 [2] was > 160 µM (inactive).
In the case of CCOC(=O)c1cnc2ccc(Cl)cc2c1NCCN(C)C, the IC50 [3] is reported as > 66 µM (inactive) and the IC50 [4] is reported as > 66 µM (inactive).
With O=C(Nc1ccc(Cl)cc1)Nc1nnc(/C=C/c2ccccc2)s1 the IC50 [19] was 5.89 µM (active).
With Cc1ccc2c(c1)NC(=O)c1cccnc1N2 the IC50 (Large T antigen) was 10.2 µM (active), the EC50 (H4) was > 120 µM (not active) and the IC50 [19] was 10.5 µM (not active). For the same compound, the EC50 [25] was 61.7 µM (active).
In the case of Cc1ccc(/C=N/NC(=O)c2ccc3ccccc3c2)s1, the EC50 [6] is reported as 18 µM (inconclusive), the EC50 (BJ [7]) is reported as 96.4 µM (inconclusive) and the EC50 (BJ [8]) is reported as 4.71 µM (inconclusive). The EC50 (BJ [9]) was 62.1 µM (active).
With O=C(C[C@@H]1C=C[C@H](NC(=O)c2ccccc2)[C@H](CO)O1)NCc1ccc(Oc2ccccc2)cc1 the AC50 [11] was 35 µM (active), the AC50 [12] was 24.1 µM (active) and the AC50 [13] was 24.7 µM (active).
With CCCCN(CCCC)S(=O)(=O)c1ccc(C(=O)Nc2nnc(COC)o2)cc1 the EC50 [1] was 2.92 µM (active) and the EC50 [2] was > 150 µM (inconclusive).
For COc1cccc(N2CCN(C3=C(Cl)C(=O)N(c4ccc(C(F)(F)F)cc4)C3=O)CC2)c1, the IC50 [26] was > 50 µM (inconclusive).
In the case of COc1ccc(Nc2nc(C(=O)NCCCN3CCOCC3)cs2)cc1, the IC50 (Protein skinhead-1) is reported as > 100 µM (inactive).
In the case of COc1cc(/C=C/C(=O)Nc2cc(S(=O)(=O)N3CCOCC3)ccc2N2CCCC2)cc(OC)c1OC, the IC50 [3] is reported as > 66 µM (inactive) and the IC50 [4] is reported as > 66 µM (inactive).
For Cc1nc2ccccc2nc1OCc1ccccc1, the IC50 (Protein skinhead-1) was 18.2 µM (active).
For COc1cccc(/C=C2\CC(C)Cc3c2nc2ccccc2c3C(=O)O)c1OC (stereo not drawn), the IC50 (Protein skinhead-1) was > 100 µM (inactive).
In the case of CN(Cc1ccccc1)S(=O)(=O)c1ccc(C(=O)O)o1, the IC50 [26] is reported as > 100 µM (not active).
In the case of CSc1nc(C)cc(C)c1C#N, the EC50 (cells [22]) is reported as > 350 µM (not active) and the EC50 (cells [23]) is reported as > 350 µM (not active).
For Cc1onc(-c2ccccc2)c1NC(=O)N(Cc1ccccc1)C(C)C, the EC50 (cells [22]) was > 350 µM (not active) and the EC50 (cells [23]) was > 350 µM (not active).
In the case of CCCSc1cc(N)cc([N+](=O)[O-])c1, the EC50 [1] is reported as > 38 µM (not active) and the EC50 [2] is reported as > 160 µM (inconclusive).
In the case of Cc1ccc(S(=O)(=O)N2CCN(c3ccccn3)CC2)cc1, the EC50 (cells [22]) is reported as > 350 µM (not active) and the EC50 (cells [23]) is reported as > 350 µM (not active).
For CCOc1ccc2nc(NN=C3C(=O)CC(C)(C)CC3=O)sc2c1, the EC50 [1] was 9.16 µM (active) and the EC50 [2] was > 160 µM (inactive).
